From patent publication US10472386B2, “Bile acid derivatives as FXR agonists and methods of use thereof” (priority 2017, dated 2019)

Biological target: T1, human FXR (NR1H4) (Homo sapiens, UniProt Q96RI1)
T1 sequence (Q96RI1 1-486): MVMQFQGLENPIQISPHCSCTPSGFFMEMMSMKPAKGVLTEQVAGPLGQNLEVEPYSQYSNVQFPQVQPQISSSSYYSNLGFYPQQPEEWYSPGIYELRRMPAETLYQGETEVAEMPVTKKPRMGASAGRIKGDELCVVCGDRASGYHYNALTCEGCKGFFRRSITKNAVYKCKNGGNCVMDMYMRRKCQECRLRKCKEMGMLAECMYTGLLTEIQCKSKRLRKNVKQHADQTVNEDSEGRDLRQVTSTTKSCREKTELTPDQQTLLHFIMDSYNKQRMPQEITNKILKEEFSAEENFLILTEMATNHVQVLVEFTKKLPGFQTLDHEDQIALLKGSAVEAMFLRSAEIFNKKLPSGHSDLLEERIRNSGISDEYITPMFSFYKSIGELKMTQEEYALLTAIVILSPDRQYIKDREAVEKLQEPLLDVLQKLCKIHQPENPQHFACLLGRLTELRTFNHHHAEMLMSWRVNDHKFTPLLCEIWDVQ
Test: Human FXR (NR1H4) Assay (Gal4 promoter driven luciferase reporter, Indigo Bioscience kit IB00601)
Assay type: cell-based
Conditions: FXR agonistic potency; CHO reporter cells expressing human NR1H4; 22 hours incubation; luciferase readout
From the text: Determination of a ligand mediated Gal4 promoter driven transactivation to quantify ligand binding mediated activation of FXR. FXR Reporter Assay kit purchased from Indigo Bioscience (Catalogue number: IB00601) to determine the potency and efficacy of compound developed by Enanta that can induce FXR activation. The principle application of this reporter assay system is to quantify functional activity of human FXR. The assay utilizes non-human mammalian cells, CHO (Chinese hamster ovary) cells engineered to express human NR1H4 protein (referred to as FXR). Reporter cells also incorporate the cDNA encoding beetle luciferase which catalyzes the substrates and yields photon emission. Luminescence intensity of the reaction is quantified using a plate-reading luminometer, Envision. Reporter Cells include the luciferase reporter gene functionally linked to an FXR responsive promoter. Thus, quantifying changes in luciferase expression in the treated reporter cells provides a sensitive surrogate measure of the changes in FXR activity. […] The assay is according to the manufacturer's instructions. In brief, the assay was performed in white, 96 well plates using final volume of 100 uL containing cells with different doses of compounds. Retrieve Reporter Cells from −80° C. storage. Perform a rapid thaw of the frozen cells by transferring a 10 ml volume of 37° C. cell recovery medium into the tube of frozen cells. Recap the tube of Reporter Cells and immediately place it in a 37° C. water bath for 5-10 minutes. Retrieve the tube of Reporter Cell Suspension from the water bath. Sanitize the outside surface of the tube with a 70% alcohol swab, and then transfer it into the cell culture hood. Dispense 90 μl of cell suspension into each well of the 96-well Assay Plate. Transfer the plate into 37° C. incubator, allowing the cells adherent to the bottom of the well. Dilute compounds in Dilution Plate (DP), and administrate to cells at Assay Plate (AP). DMSO content of the samples was kept at 0.2%. Cells were incubated for additional 22 hours before luciferase activities were measured. Thirty minutes before intending to quantify FXR activity, remove Detection Substrate and Detection Buffer from the refrigerator and place them in a low-light area so that they may equilibrate to room temperature. Remove the plate's lid and discard all media contents by ejecting it into an appropriate waste container. Gently tap the inverted plate onto a clean absorbent paper towel to remove residual droplets. Cells will remain tightly adhered to well bottoms. Add 100 μl of luciferase detection reagent to each well of the assay plate. Allow the assay plate to rest at room temperature for at least 5 minutes following the addition of LDR. Set the instrument (Envision) to perform a single 5 second “plate shake” prior to reading the first assay well. Read time may be 0.5 second (500 mSec) per well.

Going from `CC[C@H]1[C@@H](O)[C@@H]2[C@H](C[C@H](O)[C@]3(C)[C@@H]([C@H](C)COC(=O)NS(=O)(=O)c4ccc(OC(C)C)cc4)CC[C@@H]23)[C@@]2(C)CC[C@@H](O)C[C@@H]12` [Example 31] to `CC[C@H]1[C@@H](O)[C@@H]2[C@H](CC[C@]3(C)[C@@H]([C@H](C)COC(=O)NS(=O)(=O)c4ccc(OC(C)C)cc4)CC[C@@H]23)[C@@]2(C)CC[C@@H](O)C[C@@H]12` [Example 4], the EC50 falls from over 100 nM to under 1 nM. The second is the more potent here.

`CC[C@H]1[C@@H](O)[C@@H]2[C@H](CC[C@]3(C)[C@@H]([C@H](C)COC(=O)NS(=O)(=O)c4ccc(OC5(C)CCCCC5)cc4)CC[C@@H]23)[C@@]2(C)CC[C@@H](O)C[C@@H]12` [Example 12] and `CC[C@H]1[C@@H](O)[C@@H]2[C@H](CC[C@]3(C)[C@@H]([C@H](C)COC(=O)NS(=O)(=O)c4ccc(OC5(C)CC5)cc4)CC[C@@H]23)[C@@]2(C)CC[C@@H](O)C[C@@H]12` [Example 29] cannot be ordered by EC50: under 1 nM for the first, under 1 nM for the second.

`CC[C@H]1[C@@H](O)[C@@H]2[C@H](CC[C@]3(C)[C@@H]([C@H](C)COC(=O)NS(=O)(=O)c4cc(C)c(OC(C)C)c(C)c4)CC[C@@H]23)[C@@]2(C)CC[C@@H](O)C[C@@H]12` [Example 18] and `CC[C@H]1[C@@H](O)[C@@H]2[C@H](CC[C@]3(C)[C@@H]([C@H](C)COC(=O)NS(=O)(=O)c4ccc(O[C@H](C)CC)cc4)CC[C@@H]23)[C@@]2(C)CC[C@@H](O)C[C@@H]12` [Example 17] cannot be ordered by EC50: under 1 nM for the first, under 1 nM for the second.

`CC[C@H]1[C@@H](O)[C@@H]2[C@H](CC[C@]3(C)[C@@H]([C@H](C)COC(=O)NS(=O)(=O)c4ccc(OC5CCCC5)cc4)CC[C@@H]23)[C@@]2(C)CC[C@@H](O)C[C@@H]12` [Example 9] and `CC[C@H]1[C@@H](O)[C@@H]2[C@H](CC[C@]3(C)[C@@H]([C@H](C)COC(=O)NS(=O)(=O)c4ccc(OC5CCC5)cc4)CC[C@@H]23)[C@@]2(C)CC[C@@H](O)C[C@@H]12` [Example 8] cannot be ordered by EC50: under 1 nM for the first, under 1 nM for the second.

Compared with `CC[C@H]1[C@@H](O)[C@@H]2[C@H](CC[C@]3(C)[C@@H]([C@H](C)COC(=O)NS(=O)(=O)c4ccc(OC(C)(C)C)cc4)CC[C@@H]23)[C@@]2(C)CC[C@@H](O)C[C@@H]12` [Example 24], `CC[C@H]1[C@@H](O)[C@@H]2[C@H](CC[C@]3(C)[C@@H]([C@H](C)COC(=O)NS(=O)(=O)c4ccc(OCC(C)(C)C)cc4)CC[C@@H]23)[C@@]2(C)CC[C@@H](O)C[C@@H]12` [Example 20] is higher in EC50: under 1 nM for the first, 1 to 10 nM for the second.

First: CCCOc1ccc(S(=O)(=O)NC(=O)OC[C@@H](C)[C@H]2CC[C@H]3[C@@H]4[C@H](O)[C@H](CC)[C@@H]5C[C@H](O)CC[C@]5(C)[C@H]4CC[C@]23C)cc1 [Example 15]
Second: CC[C@H]1[C@@H](O)[C@@H]2[C@H](CC[C@]3(C)[C@@H]([C@H](C)COC(=O)NS(=O)(=O)c4ccc(O)cc4)CC[C@@H]23)[C@@]2(C)CC[C@@H](O)C[C@@H]12 [Example 26]
The EC50 of the first is lower: under 1 nM for the first, over 100 nM for the second. The first is the more potent here.

Compared with `CC[C@H]1[C@@H](O)[C@@H]2[C@H](CC[C@]3(C)[C@@H]([C@H](C)COC(=O)NS(=O)(=O)c4ccc5c(c4)CCC(C)(C)O5)CC[C@@H]23)[C@@]2(C)CCC(=O)C[C@@H]12` [Example 34], `CC[C@H]1[C@@H](O)[C@@H]2[C@H](C[C@H](O)[C@]3(C)[C@@H]([C@H](C)COC(=O)NS(=O)(=O)c4ccc5c(c4)CCC(C)(C)O5)CC[C@@H]23)[C@@]2(C)CC[C@@H](O)C[C@@H]12` [Example 32] is higher in EC50: under 1 nM for the first, over 100 nM for the second. The first is the more potent here.

Work on `CC(C)Oc1ccc(S(=O)(=O)NC(=O)OC[C@@H](C)[C@H]2CC[C@H]3[C@@H]4[C@H](O)C[C@@H]5C[C@H](O)CC[C@]5(C)[C@H]4CC[C@]23C)cc1` [Example 3] yielded an EC50 of over 100 nM.
